Data on six compounds can be found in patent EP0201420A1, “2-(2-Acetamido-2-deoxy-3-O-D-glucopyranosyl)-alkanoyl-aminoacyl-nor leucin glycopeptides or derivatives of these glycopeptides, and immunoadjuvant compositions containing them” (ANVAR Agence Nationale de Valorisation de la Recherche, priority 1985, dated 1986).

One assay concerns globules rouges de mouton. Kind of assay: Immunosuppression test: high dose given before sheep red blood cells, haemolytic plaques of splenocytes counted (Cunningham method). Type of assay: in vivo, souris. The conditions noted are these: 1 mg per mouse 2 days before 10^8 sheep red blood cells; splenocytes taken 4 days after; experiment repeated 3 times. As for the experimental part:
Dans l'expérience qui figure au tableau Ibis et qui a été répétéa 3 fois, le MDP et les autres substances ont été injectés à des souris à une dose 10 ou 20 fois plus élevée que d'habitude (1 mg) 2 jours avant l'injection de 10^8 globules rouges de mouton. Les splénocytes ont été pélevés et mis en culture 4 jours après l'injection de globules rouges de mouton et le nombre de plages hémolytiques dosées selon la méthode de Cunningham.
As to `CC(=O)N[C@H]1C(O)O[C@H](CO)[C@@H](O)[C@@H]1O[C@H](C)C(=O)N[C@@H](C)C(=O)N[C@H](CCC(=O)O)C(N)=O` (stereo partly drawn) [MDP, N-acétyl-muramyl-L-alanyl-D-isoglutamine], the “inhibition de la production d'anticorps (nombre de plages hémolytiques)” value was “inhibe totalement la production d'anticorps”.
Still for that read-out and setting: the entry for `CCCCOC(=O)[C@@H](CCC(N)=O)NC(=O)[C@H](C)NC(=O)[C@@H](C)O[C@H]1[C@H](O)[C@@H](CO)OC(O)[C@@H]1NC(C)=O` (stereo partly drawn) [murabutide] is “inhibe totalement la production d'anticorps”.

A further assay concerns réponse humorale de la souris swiss femelle à la sérumalbumine bovine. Put plainly: Immunoadjuvant activity: humoral antibody response to bovine serum albumin, measured by passive haemagglutination. The conditions noted are these: 100 µg per mouse s.c. with 0,5 mg bovine serum albumin in aqueous solution; primary response day 28, secondary response day 36. Type of assay: in vivo. As for the experimental part:
L'activité immunoadjuvante a été étudiée en mettant en jeu la réponse humorale de la souris swiss femelle à la sérumalbumine bovine.
Des groupes de huit souris âgées de 2 mois reçoivent par voie sous-cutanée 0,5 mg de sérumalbumine bovine avec ou sans les substances à tester, à raison de 100 µg par souris. Les administrations sont faites en solution aqueuse.
Au jour 28, on effectue des prélèvements du sérum sanguin sur les souris traitées et la réponse primaire en anticorps est déterminée par hémagglutination passive en utilisant des hématies de moutons traitées à la formaline et recouvertes de l'antigène étudié selon la méthode décrite par A. A. HIRATA et M.V. BRANDISSE (5. immunol.100, 541 - 648, 1968). Au jour 30 les souris reçoivent une injection de rappel avec les antigènes seuls (100 µg par souris) et au jour 36 on mesure la réponse secondaire induite par la même technique de mesure .
Les résultats de ces essais figurent dans le tableau 1 qui suit. Ce tableau contient également les résultats mesurés dans les mêmes conditions chez les animaux témoins et chez des animaux qui ont été traités de la même manière avec le MDP à titre de substance de comparaison.
For the compound `CCCC[C@@H](NC(=O)[C@H](C)NC(=O)[C@@H](C)O[C@H]1[C@H](O)[C@@H](CO)OC(O)[C@@H]1NC(C)=O)C(N)=O` (stereo partly drawn) [compound 1], the activité immunoadjuvante result is listed as “n'a pas témoigné d'une activité spécifique”.
The same measure, in the same setting: the entry for `CCCCOC(=O)[C@@H](CCCC)NC(=O)[C@H](C)NC(=O)[C@@H](C)O[C@H]1[C@H](O)[C@@H](CO)OC(O)[C@@H]1NC(C)=O` (stereo partly drawn) [compound 2] is “une activité qui se rapproche sensiblement”; for `CCCCOC(=O)[C@@H](CCCC)NC(=O)[C@H](C)NC(=O)CO[C@H]1[C@H](O)[C@@H](CO)OC(O)[C@@H]1NC(C)=O` (stereo partly drawn) [compound 5] it is “une activité qui se rapproche sensiblement”; for `CCCC[C@@H](NC(=O)[C@H](C)NC(=O)[C@@H](C)O[C@H]1[C@H](O)[C@@H](CO)OC(O)[C@@H]1NC(C)=O)C(=O)OC` (stereo partly drawn) [compound 6] it is “une activité qui se rapproche sensiblement”.
